Literature values, collected in patent US20080268488A1, “Screening Method for Dnak Inhibitors” (priority 2005, published 2008).
No end group written: not given here.

Conditions: aminopeptidase and carboxypeptidase cleavage products observed

Sequence | susceptibility to proteolytic degradation in the presence of mammalian serum
GKPRPYSPRPTSHPRPIRV [drosocin, Gly-Lys-Pro-Arg-Pro-Tyr-Ser-Pro-Arg-Pro-Thr-Ser-His-Pro-Arg-Pro-Ile-Arg-Val] | highly susceptible to proteolytic degradation
VDKGSYLPRPTPPRPIYNRN [pyrrhocoricin] | highly susceptible to proteolytic degradation
